Test results published in the NIST ThermoML archive (doi:10.1021/je700300y).

Test: xn = mol fraction of the nth substance listed
Conditions: 101 kPa, Liquid

CCO [ethanol] + O
mass density [kg/m3]
Conditions	283.15 K	288.15 K	293.15 K	298.15 K	303.15 K	308.15 K	313.15 K
x2 = 0.0805	808.05	803.79	799.51	795.19	790.85	786.45	782.01
x2 = 0.1584	818.14	813.87	809.57	805.23	800.84	796.41	791.93
x2 = 0.2376	828.89	824.61	820.29	815.93	811.53	807.07	802.5
x2 = 0.3322	842.93	838.67	834.37	830.01	825.61	821.15	816.63
x2 = 0.4026	854.12	849.89	845.61	841.27	836.89	832.45	827.94
x2 = 0.491	869.86	865.67	861.44	857.16	852.81	848.4	843.95
x2 = 0.5806	888.19	884.08	879.93	875.71	871.44	867.11	862.72
x2 = 0.648	903.57	899.55	895.48	891.35	887.16	882.91	878.59
x2 = 0.7185	921.65	917.78	913.84	909.85	905.8	901.68	897.49
x2 = 0.8009	944.6	941.07	937.48	933.81	930.07	926.25	922.34
x2 = 0.8813	965.96	963.49	960.85	958.06	955.13	952.05	948.82
x2 = 0.9605	984.04	983.11	981.89	980.42	978.75	976.91	974.89

CO [methanol] + O
mass density [kg/m3]
Conditions	283.15 K	288.15 K	293.15 K	298.15 K	303.15 K	308.15 K	313.15 K
x2 = 0.0871	814.96	810.44	805.91	801.35	796.78	792.17	787.52
x2 = 0.1529	826.26	821.86	817.44	812.99	808.5	803.98	799.41
x2 = 0.2395	841.8	837.53	833.23	828.9	824.53	820.11	815.64
x2 = 0.3306	859.01	854.89	850.73	846.53	842.28	837.98	833.61
x2 = 0.4064	873.83	869.85	865.81	861.73	857.59	853.4	849.13
x2 = 0.4788	888.32	884.5	880.62	876.68	872.67	868.59	864.45
x2 = 0.5552	904.06	900.44	896.75	893	889.17	885.26	881.28
x2 = 0.6365	921.03	917.69	914.28	910.78	907.2	903.52	899.76
x2 = 0.7321	941.06	938.2	935.24	932.18	929.02	925.74	922.36
x2 = 0.7901	952.73	950.29	947.7	945	942.19	939.27	936.09
x2 = 0.8807	970.64	969.11	967.39	965.47	963.37	961.09	958.65
x2 = 0.964	988.96	988.25	987.25	986	984.5	982.79	980.87
